Laboratory results published in PubChem BioAssay AID1918938 (Molecular Pharmacology Branch, DTP, NCI, 2023).

System: 556581-035-R-J1-PDC complex spheroid viability
Assay: Anticancer human tumor 556581-035-R-J1-PDC patient-derived ovarian carcinoma cell line growth inhibition
Details: for IC50: curve of first compound; for viability, T/C: stronger effect = lower value
Summary of the method: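 Drug combinations with the LSD1 inhibitor iadademstat tested on tumor cells co-cultured as spheroids with endothelial cells and mesenchymal stem cells. Concentrations descended in half-log increments from clinical Cmax or 10 microM.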

[1] = second compound 0.1 µM, first compound 0.000949 µM
[2] = second compound 0.1 µM, first compound 0.003 µM
[3] = second compound 0.1 µM, first compound 0.00949 µM
[4] = second compound 0.1 µM, first compound 0.03 µM
[5] = second compound 0.1 µM, first compound 0.0949 µM
[6] = second compound 0.1 µM, first compound 0.3 µM
[7] = second compound 0.316 µM, first compound 0.000949 µM
[8] = second compound 0.316 µM, first compound 0.003 µM
[9] = second compound 0.316 µM, first compound 0.00949 µM
[10] = second compound 0.316 µM, first compound 0.03 µM
[11] = second compound 0.316 µM, first compound 0.0949 µM
[12] = second compound 0.316 µM, first compound 0.3 µM
[13] = second compound 1 µM, first compound 0.000949 µM
[14] = second compound 1 µM, first compound 0.003 µM
[15] = second compound 1 µM, first compound 0.00949 µM
[16] = second compound 1 µM, first compound 0.03 µM
[17] = second compound 1 µM, first compound 0.0949 µM
[18] = second compound 1 µM, first compound 0.3 µM
[19] = second compound 3.16 µM, first compound 0.000949 µM
[20] = second compound 3.16 µM, first compound 0.003 µM
[21] = second compound 3.16 µM, first compound 0.00949 µM
[22] = second compound 3.16 µM, first compound 0.03 µM
[23] = second compound 3.16 µM, first compound 0.0949 µM
[24] = second compound 3.16 µM, first compound 0.3 µM
[25] = second compound 10 µM, first compound 0.000949 µM
[26] = second compound 10 µM, first compound 0.003 µM
[27] = second compound 10 µM, first compound 0.00949 µM
[28] = second compound 10 µM, first compound 0.03 µM
[29] = second compound 10 µM, first compound 0.0949 µM
[30] = second compound 10 µM, first compound 0.3 µM
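Also: spheroids exposed to agents for seven days.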
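For viability, T/C in this document: 100% = DMSO vehicle control wells.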

Question: Which results are given for `CC[C@@]1(O)C(=O)OCc2c1cc1n(c2=O)Cc2cc3c(CN(C)C)c(O)ccc3nc2-1` + NC1CCC(NC2CC2c2ccccc2)CC1?
Answer: IC50 (second compound 0.1 µM): 14.7 nM; IC50 (second compound 0.316 µM): 13.9 nM; IC50 (second compound 1 µM): 14.4 nM; IC50 (second compound 3.16 µM): 18.8 nM; IC50 (second compound 10 µM): 11.5 nM; viability, T/C (second compound 0.1 µM, first compound 0.000316 µM): 78.7%; viability, T/C (second compound 0.1 µM, first compound 0.001 µM): 91.5%; viability, T/C (second compound 0.1 µM, first compound 0.00316 µM): 79%; viability, T/C (second compound 0.1 µM, first compound 0.01 µM): 57.6%; viability, T/C (second compound 0.1 µM, first compound 0.0316 µM): 31.9%; viability, T/C (second compound 0.1 µM, first compound 0.1 µM): 9.52%; viability, T/C (second compound 0.316 µM, first compound 0.000316 µM): 91.4%; viability, T/C (second compound 0.316 µM, first compound 0.001 µM): 82.2%; viability, T/C (second compound 0.316 µM, first compound 0.00316 µM): 81.8%; viability, T/C (second compound 0.316 µM, first compound 0.01 µM): 55%; viability, T/C (second compound 0.316 µM, first compound 0.0316 µM): 32.5%; viability, T/C (second compound 0.316 µM, first compound 0.1 µM): 13.3%; viability, T/C (second compound 1 µM, first compound 0.000316 µM): 79%; viability, T/C (second compound 1 µM, first compound 0.001 µM): 81.3%; viability, T/C (second compound 1 µM, first compound 0.00316 µM): 72.2%; viability, T/C (second compound 1 µM, first compound 0.01 µM): 58%; viability, T/C (second compound 1 µM, first compound 0.0316 µM): 32.8%; viability, T/C (second compound 1 µM, first compound 0.1 µM): 10.1%; viability, T/C (second compound 3.16 µM, first compound 0.000316 µM): 72.5%; viability, T/C (second compound 3.16 µM, first compound 0.001 µM): 89.8%; viability, T/C (second compound 3.16 µM, first compound 0.00316 µM): 73.9%; viability, T/C (second compound 3.16 µM, first compound 0.01 µM): 63.8%; viability, T/C (second compound 3.16 µM, first compound 0.0316 µM): 38.5%; viability, T/C (second compound 3.16 µM, first compound 0.1 µM): 10%; viability, T/C (second compound 10 µM, first compound 0.000316 µM): 64.4%; viability, T/C (second compound 10 µM, first compound 0.001 µM): 67.1%; viability, T/C (second compound 10 µM, first compound 0.00316 µM): 64.8%; viability, T/C (second compound 10 µM, first compound 0.01 µM): 51.8%; viability, T/C (second compound 10 µM, first compound 0.0316 µM): 29.2%; viability, T/C (second compound 10 µM, first compound 0.1 µM): 7.41%

Question: What does the source list for `CCc1c2c(nc3ccc(O)cc13)-c1cc3c(c(=O)n1C2)COC(=O)[C@]3(O)CC` + NC1CCC(NC2CC2c2ccccc2)CC1?
Answer: IC50 (second compound 0.1 µM): < 0.949 nM; IC50 (second compound 0.316 µM): < 0.949 nM; IC50 (second compound 1 µM): < 0.949 nM; IC50 (second compound 3.16 µM): < 0.949 nM; IC50 (second compound 10 µM): < 0.949 nM; viability, T/C [1]: 20.5%; viability, T/C [2]: 10.8%; viability, T/C [3]: 2.17%; viability, T/C [4]: 0.64%; viability, T/C [5]: 0.13%; viability, T/C [6]: 0.25%; viability, T/C [7]: 20.3%; viability, T/C [8]: 12.4%; viability, T/C [9]: 3.03%; viability, T/C [10]: 1.28%; viability, T/C [11]: 0.23%; viability, T/C [12]: 0.24%; viability, T/C [13]: 20.2%; viability, T/C [14]: 13.4%; viability, T/C [15]: 2.69%; viability, T/C [16]: 0.95%; viability, T/C [17]: 1.3%; viability, T/C [18]: 0.52%; viability, T/C [19]: 20.9%; viability, T/C [20]: 10.9%; viability, T/C [21]: 2.33%; viability, T/C [22]: 0.37%; viability, T/C [23]: 0.36%; viability, T/C [24]: 0.53%; viability, T/C [25]: 20.1%; viability, T/C [26]: 10.3%; viability, T/C [27]: 2.5%; viability, T/C [28]: 0.37%; viability, T/C [29]: 0.19%; viability, T/C [30]: 0.32%

Question: `COc1cc(C2c3cc4c(cc3C(OC3OC5COC(C)OC5C(O)C3O)C3COC(=O)C23)OCO4)cc(OC)c1O` (stereo not given) + NC1CCC(NC2CC2c2ccccc2)CC1 was tested. Which IC50 (second compound 0.1 µM) did it give?
Answer: The IC50 was 481 nM.

Question: And the IC50 (second compound 0.316 µM)?
Answer: Its IC50 is 451 nM.

Question: And the IC50 (second compound 1 µM)?
Answer: The IC50 was 559 nM.

Question: What about the IC50 (second compound 3.16 µM) of the same compound?
Answer: Its IC50 is 501 nM.

Question: What about the IC50 (second compound 10 µM) of the same compound?
Answer: The IC50 was 330 nM.

Question: What about the viability, T/C [3] of the same compound?
Answer: Its viability, T/C is 86.7%.

Question: What about the viability, T/C [4] of the same compound?
Answer: The viability, T/C was 84.7%.

Question: And the viability, T/C [5]?
Answer: The viability, T/C was 68.6%.

Question: What about the viability, T/C [6] of the same compound?
Answer: Its viability, T/C is 55.5%.

Question: What about the viability, T/C (second compound 0.1 µM, first compound 0.949 µM) of the same compound?
Answer: The viability, T/C was 42.3%.

Question: And the viability, T/C (second compound 0.1 µM, first compound 3 µM)?
Answer: The viability, T/C was 26.2%.

Question: And the viability, T/C [9]?
Answer: Its viability, T/C is 107%.

Question: What about the viability, T/C [10] of the same compound?
Answer: Its viability, T/C is 84.7%.

Question: And the viability, T/C [11]?
Answer: The viability, T/C was 75.3%.

Question: And the viability, T/C [12]?
Answer: Its viability, T/C is 58.6%.

Question: And the viability, T/C (second compound 0.316 µM, first compound 0.949 µM)?
Answer: The viability, T/C was 36.1%.

Question: What about the viability, T/C (second compound 0.316 µM, first compound 3 µM) of the same compound?
Answer: Its viability, T/C is 23.9%.

Question: What about the viability, T/C [15] of the same compound?
Answer: The viability, T/C was 76.8%.

Question: What about the viability, T/C [16] of the same compound?
Answer: Its viability, T/C is 76.2%.

Question: And the viability, T/C [17]?
Answer: The viability, T/C was 68.3%.

Question: What about the viability, T/C [18] of the same compound?
Answer: The viability, T/C was 58.8%.

Question: And the viability, T/C (second compound 1 µM, first compound 0.949 µM)?
Answer: Its viability, T/C is 42.6%.

Question: What about the viability, T/C (second compound 1 µM, first compound 3 µM) of the same compound?
Answer: The viability, T/C was 19.2%.

Question: What about the viability, T/C [21] of the same compound?
Answer: Its viability, T/C is 88.6%.

Question: And the viability, T/C [22]?
Answer: Its viability, T/C is 66.5%.

Question: What about the viability, T/C [23] of the same compound?
Answer: Its viability, T/C is 74.9%.

Question: What about the viability, T/C [24] of the same compound?
Answer: Its viability, T/C is 53.5%.

Question: What about the viability, T/C (second compound 3.16 µM, first compound 0.949 µM) of the same compound?
Answer: The viability, T/C was 45.8%.

Question: And the viability, T/C (second compound 3.16 µM, first compound 3 µM)?
Answer: Its viability, T/C is 23.4%.

Question: What about the viability, T/C [27] of the same compound?
Answer: Its viability, T/C is 71.3%.

Question: What about the viability, T/C [28] of the same compound?
Answer: The viability, T/C was 68.4%.

Question: What about the viability, T/C [29] of the same compound?
Answer: Its viability, T/C is 68.7%.

Question: And the viability, T/C [30]?
Answer: The viability, T/C was 48.3%.

Question: What about the viability, T/C (second compound 10 µM, first compound 0.949 µM) of the same compound?
Answer: Its viability, T/C is 38.8%.

Question: And the viability, T/C (second compound 10 µM, first compound 3 µM)?
Answer: Its viability, T/C is 28.4%.

Question: Which results are given for `Nc1ccn(C2OC(CO)C(O)C2(F)F)c(=O)n1` (stereo not given) + NC1CCC(NC2CC2c2ccccc2)CC1?
Answer: IC50 (second compound 0.1 µM): 2.48 nM; IC50 (second compound 0.316 µM): 2.57 nM; IC50 (second compound 1 µM): 2.34 nM; IC50 (second compound 3.16 µM): 2.4 nM; IC50 (second compound 10 µM): 1.98 nM; viability, T/C [1]: 75.4%; viability, T/C [2]: 44.4%; viability, T/C [3]: 43.3%; viability, T/C [4]: 39.6%; viability, T/C [5]: 40.3%; viability, T/C [6]: 36.5%; viability, T/C [7]: 76.9%; viability, T/C [8]: 45.8%; viability, T/C [9]: 33.2%; viability, T/C [10]: 36%; viability, T/C [11]: 34.5%; viability, T/C [12]: 34.1%; viability, T/C [13]: 65.5%; viability, T/C [14]: 48.3%; viability, T/C [15]: 33.5%; viability, T/C [16]: 42.7%; viability, T/C [17]: 40.5%; viability, T/C [18]: 37.8%; viability, T/C [19]: 63%; viability, T/C [20]: 46.3%; viability, T/C [21]: 41.5%; viability, T/C [22]: 42.8%; viability, T/C [23]: 40.7%; viability, T/C [24]: 36.1%; viability, T/C [25]: 61.1%; viability, T/C [26]: 44.9%; viability, T/C [27]: 36.8%; viability, T/C [28]: 42.2%; viability, T/C [29]: 38.3%; viability, T/C [30]: 42.7%
